Source: patent publication US9670203B2 (BeiGene, LTD., priority 2013, dated 2017)
Like-named read-outs stand apart in the source and are kept apart here.

Key:
B-Raf (V600E) = B-Raf (V600E) (Homo sapiens (Human), UniProt P15056, V600E); assay: Raf IC50 assay, time-resolved fluorescence energy transfer, B-Raf (V600E); format: biochemical; details: 0.1 mM ATP; read-out: IC50 (nM) B_Raf^V600E
C-Raf (Y340D/Y341D) = C-Raf (Y340D/Y341D) (Homo sapiens (Human), UniProt P04049, Y340D/Y341D); assay: Raf IC50 assay, time-resolved fluorescence energy transfer, C-Raf (Y340D/Y341D); format: biochemical; details: 0.1 mM ATP
Procedure: The assay was carried out in reactions (10 μL) containing 0.0625 nM B-Raf or 0.5 nM C-Raf, 25 mM Tris pH7.4, 10 mM MgCl2, 0.5 mM EGTA, 0.5 mM Na3VO4, 5 mM beta-glycerophosphate, 0.01% Triton X-100, 2.5 mM DTT, 0.1% BSA, 0.1 mM ATP, 13.7 nM GST-tagged MEK1 (Full-length protein with K97R mutation, recombinant protein purified from bacterial expression system) and 0-5 μM compounds disclosed herein (final concentration of 1% DMSO). The enzyme was incubated with the compounds at room temperature for 60 minutes and the reactions were initiated by the addition of ATP and GST-MEK1. After reaction at room temperature for 60 minutes, an equal volume of stop/detection solution was added according to the manufacture's instruction (CisBio Bioassays). The stop/detection solution contained Eu^3+ cryptate-conjugated anti-phospho MEK1/2 (Ser217/221) rabbit polyclonal antibody and d2-conjugated anti-GST mouse monoclonal antibody in buffer containing 25 mM Tris pH7.4, 400 mM KF, 50 mM EDTA, 0.01% BSA and 0.01% Triton X-100. Plates were sealed and incubated at room temperature for 2 hours, and the TR-FRET signals (ratio of fluorescence emission at 665 nm over emission at 620 nm with excitation at 337 nm wavelength) were recorded on a PHERAstar FS plate reader (BMG Labtech). Phosphorylation of MEK1 led to the binding of anti-phospho-MEK1/2 antibody to GST-MEK1 protein that place fluorescent donor (Eu^3+ crypate) in close proximity to the accepter d2 on the anti-GST antibody, thus resulting in a high degree of fluorescence resonance energy transfer from the donor fluorophore (at 620 nm) to the acceptor fluorophore (at 665 nm). […] The IC50 for each compound was derived from fitting the dose-response % inhibition data to the four-parameter logistic model by Graphpad Prism software.

wild type B-Raf = wild type B-Raf (Homo sapiens (Human), UniProt P15056); assay: WT B-Raf IC50 assay, time-resolved fluorescence energy transfer; format: biochemical
Procedure: The IC50 for each compound was calculated by non linear regression by Graphpad Prism software.

p61-A375 (pERK) = assay: ERK phosphorylation inhibition IC50 assay in p61-A375; format: cell-based; details: 1 hour compound treatment
Procedure: (§1) To express p61 in mammalian cells, cDNA encoding the p61 (Poulikakos et al., Nature. 2011 Nov. 23; 480(7377):387-90) was synthesized by Genscript and cloned into pLVX-IRES-Puro vector (Clontech). The cDNA was a modified form of p61 in which sequencing encoding the flag-epitope had been inserted to the C-terminus, resulting in the expression of flag-tagged forms of protein. A375 cells were stably transfected with the Flag-p61 expressing plasmid and selected with DMEM containing […] puromycin (Invitrogen). Cells were cloned by limiting dilution in a 96-wells plate and the clones screened by western blot analysis using a monoclonal antibody directed against the flag-epitope.
(§2) Growth medium was then replaced with 100 μL of serum free DMEM, cells were then treated with a 10-point titration of compounds disclosed herein. After 1 hour compound treatment, 50 μL of lysis buffer (Cisbio) were added to each well and incubated at room temperature with shaking for 30 minutes. A total of 16 μL of cell lysate from each well of a 96-well plate was transferred to a 384-well small volume white plate. Lysate from each well was incubated with 2 μL of Eu^3+-cryptate (donor) labeled anti-ERK antibody (Cisbio) and 2 μL of D2 (acceptor) labeled anti-phospho-ERK antibody (Cisbio) for 2 hours at room temperature. When donor and acceptor are in close proximity, excitation of the donor with laser triggers a Fluorescence Resonance Energy Transfer (FRET) towards the acceptor, which in turn fluoresces at 655 nm wavelength. Fluorescence values were measured using a BMG reader.
(§3) IC50 values for ERK inhibition were calculated by fitting dose-dependent data to the four-parameter logistic model using GraphPad Prism software.

A375 = assay: Anti-proliferative activity EC50 assay (CellTiter-Glo) in A375; format: cell-based; details: Homo sapiens, A-375, 72 h; 3-day exposure; read-out: Cell Proliferation EC50 (nM) A375
How it was run: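 CellTiter-Glo luminescence (ATP) after 2,000 cells/well attached 16 h, then 3-day exposure to a 10-point dilution series in duplicate. EC50 from four-parameter logistic fit of dose-response data.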

p61-A375 = assay: Anti-proliferative activity EC50 assay (CellTiter-Glo) in p61-A375; format: cell-based; details: 72 h; 3-day exposure; read-out: Cell Proliferation EC50 (nM) p61-A375
Procedure: as §1
The growth-inhibitory activity of compounds in A375 and p61-A375, was determined using CellTiter-Glo luminescent cell viability assay (Promega). The 2,000 cells were seeded per well of a 96-well plate to ensure logarithmic growth could occur over the 3 days treatment period. Cells were left to attach for 16 hours, cells were treated in duplicate with a 10-point dilution series. Following a 3-day exposure to compounds disclosed herein, a volume of CellTiter-Glo reagent equal to the volume of cell culture medium present in each well was added. Mixture was mixed on an orbital shaker for 2 minutes to allow cell lysis, followed by 10 minutes incubation at room temperature to allow stabilization of luminescent signal, which corresponded to quantitation of ATP and thus the quantitation of metabolically active cells. Luminescent signal was measured using Pherastar FS reader (BMG Labtech).
EC50 values for growth inhibition were calculated by fitting dose-dependent data to the four-parameter logistic model using GraphPad Prism software.

Calu-6 (pERK) = assay: ERK phosphorylation inhibition IC50 assay in Calu-6; format: cell-based; details: Homo sapiens, 1 hour compound treatment
Procedure: as §2, §3

HeLa (pERK) = assay: ERK phosphorylation inhibition IC50 assay in HeLa; format: cell-based; details: Homo sapiens, 1 hour compound treatment
Procedure: as §2, §3

[1] = 2.5 mM ATP, read-out: IC50 (nM) B-Raf^WT 2.5 mM ATP
[2] = Km ATP (2.9 μM ATP), read-out: IC50 (nM) B-Raf^WT Km ATP

Chain of wild type B-Raf (P15056 whole entry): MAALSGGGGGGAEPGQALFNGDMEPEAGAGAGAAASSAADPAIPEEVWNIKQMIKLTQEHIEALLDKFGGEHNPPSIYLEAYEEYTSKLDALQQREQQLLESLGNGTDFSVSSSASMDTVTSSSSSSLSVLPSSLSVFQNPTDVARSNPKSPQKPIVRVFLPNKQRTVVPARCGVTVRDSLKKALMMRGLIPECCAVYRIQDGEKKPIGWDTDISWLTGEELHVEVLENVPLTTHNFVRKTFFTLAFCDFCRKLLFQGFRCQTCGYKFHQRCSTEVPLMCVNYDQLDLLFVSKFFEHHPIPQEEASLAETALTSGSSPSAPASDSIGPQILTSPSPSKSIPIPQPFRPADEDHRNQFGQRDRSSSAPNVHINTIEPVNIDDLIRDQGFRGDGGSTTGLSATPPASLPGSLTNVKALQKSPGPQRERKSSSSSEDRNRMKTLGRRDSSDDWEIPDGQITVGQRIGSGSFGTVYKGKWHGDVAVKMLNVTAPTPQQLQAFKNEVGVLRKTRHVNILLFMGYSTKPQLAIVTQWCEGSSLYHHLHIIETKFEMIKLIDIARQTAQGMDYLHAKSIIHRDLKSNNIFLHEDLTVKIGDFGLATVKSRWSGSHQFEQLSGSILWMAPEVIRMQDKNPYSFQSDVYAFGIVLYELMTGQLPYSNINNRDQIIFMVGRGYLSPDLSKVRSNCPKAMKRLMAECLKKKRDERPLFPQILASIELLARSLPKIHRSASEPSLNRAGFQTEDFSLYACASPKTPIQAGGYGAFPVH
Chain of C-Raf (Y340D/Y341D) (P04049 whole entry Y340D/Y341D): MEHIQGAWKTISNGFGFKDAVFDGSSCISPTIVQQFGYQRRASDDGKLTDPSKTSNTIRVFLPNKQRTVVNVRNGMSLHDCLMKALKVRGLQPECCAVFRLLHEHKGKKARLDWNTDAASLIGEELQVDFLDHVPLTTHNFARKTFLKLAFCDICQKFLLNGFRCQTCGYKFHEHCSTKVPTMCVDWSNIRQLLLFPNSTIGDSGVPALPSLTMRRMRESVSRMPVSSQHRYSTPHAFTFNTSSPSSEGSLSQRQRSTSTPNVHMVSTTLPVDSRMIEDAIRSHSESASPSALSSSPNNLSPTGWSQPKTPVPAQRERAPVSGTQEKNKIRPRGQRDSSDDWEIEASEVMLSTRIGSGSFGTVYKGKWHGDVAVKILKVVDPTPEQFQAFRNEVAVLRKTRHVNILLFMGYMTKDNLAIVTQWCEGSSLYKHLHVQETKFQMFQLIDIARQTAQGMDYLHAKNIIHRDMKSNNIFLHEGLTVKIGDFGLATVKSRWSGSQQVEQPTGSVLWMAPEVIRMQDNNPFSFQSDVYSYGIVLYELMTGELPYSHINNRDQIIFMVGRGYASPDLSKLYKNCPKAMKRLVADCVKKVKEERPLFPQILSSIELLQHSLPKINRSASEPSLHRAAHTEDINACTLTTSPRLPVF
Chain of B-Raf (V600E) (P15056 whole entry V600E): as the sequence (P15056 whole entry) above, with V600E counted along it

SMILES	IC50 (B-Raf (V600E)) [nM]	IC50 (C-Raf (Y340D/Y341D)) [nM]	IC50 (wild type B-Raf; [1]) [nM]	IC50 (wild type B-Raf; [2]) [nM]	IC50 (p61-A375 (pERK)) [nM]	EC50 (A375) [nM]	EC50 (p61-A375) [nM]	IC50 (Calu-6 (pERK)) [nM]	IC50 (HeLa (pERK)) [nM]
O=C1CCc2c(Oc3ccc4c(c3)[C@H]3[C@H](NC(=O)Nc5ccc(F)c(F)c5)[C@H]3O4)ccnc2N1 [Compound 1.45]	1.1	0.3	6.7	2.7	325	32	645	84	265
O=C1CCc2c(Oc3ccc4c(c3)[C@H]3[C@H](NC(=O)Nc5cc(F)c(F)cc5F)[C@H]3O4)ccnc2N1 [Compound 1.49]	1.2	0.19	7.9	2.5	153	17	639	112	498
